Experimental findings from patent US20220193241A1, “AGENT TARGETING DOUBLE-MEMBRANE ORGANELLE DNA” (CHIBA-PREFECTURE, priority 2019, published 2022) are described below.

Holding throughout (assay type): cell-based
The subject of experiment [1] is A549 cells. The experiment can be described thus: WST assay of cell proliferation (CCC021-TPP). The conditions noted are these: Homo sapiens, 96 h; A549, 4 days. As to the method:
(§1) The proliferation suppressive effect of CCC021-TPP on cells having the A14582G mtDNA mutation was evaluated by WST assay. Both the mitochondrial DNA mutated cell line A549 and a PC14 cell line having no mutation were inoculated at 1×10^3 cells/well to 96-well plates (Thermo Fisher Scientific), cultured for 24 hours, and then treated with CCC021-TPP (final concentration: 0, 1, 5, 10, 20, 25, 50, and 100 μM). The cells were further cultured for 4 days and then morphologically observed under optical microscope IX71 (OLYMPUS, Tokyo, Japan). Then, cell survival rates were calculated using Cell counting kit-8 (DOJINDO, Kumamoto, Japan) according to the instruction manual. DMSO (FUJIFILM Wako Pure Chemical Corp.) (final concentration: 1%) was added as a control to cells.
(§2) IC50 was calculated according to the following expression:
(§3) IC50=10(LOG(A/B)×(50−C)/(D−C)+LOG(B))

The test system of experiment [2] is PC14 cells. Put plainly: WST assay of cell proliferation (CCC021-TPP). The conditions noted are these: PC14, 4 days. As to the method:
as §1, §2, §3

Experiment [3] relates to A549 cells. Put plainly: Long-term cell proliferation, cell numbers counted for 8 days. The conditions noted are these: 20 μM. As to the method:
(§4) The suppression of cell proliferation was further observed in the A549 and PC14 cells mentioned above for a long period. The observation was performed for 8 days under the culture conditions described above (both the mtDNA mutation cell line A549 and the PC14 cell line having no mutation were inoculated at 1×10^3 cells/well, cultured for 24 hours, and then treated with CCC021-TPP (final concentration: 20 μM)), and cell numbers were counted.

Experiment [4] deals with PC14 cells. The description is as above. The conditions noted are these: 20 μM. As to the method:
as §4

Experiment [5] relates to A549 cells. The experiment can be described thus: Trypan blue assay of live cell numbers. The conditions noted are these: A549, 7 days later. As to the method:
(§5) The A549 cells and the PC14 cells were inoculated at 5×10^3 cells/dish and 1×10^4 cells/dish, respectively, to 35 mm glass base dishes (IWAKI, Japan), cultured for 24 hours, and then treated with CCC021-TPP (final concentration: 20 μM). Further, 24 hours later, the culture solution was discarded, and a DMEM culture solution containing Mito Tracker(R) Red CMXRos (Life Technologies, USA) was added to attain 100 nM. 30 minutes later, the cells were washed twice with PBS, then fixed in 4% PFA for 30 minutes, then medium-replaced with PBS, preserved at 4° C., immunostained with the antibody by the method described in Example 1, and observed under confocal laser microscope SP8 (Leica, Germany). […] A549 and PC14 were each inoculated at 5×10^2 cells/well to 16 wells of a 96-well plate, cultured for 24 hours, and then treated with CCC021-TPP at 0, 1, 2, 5, 10, 25, and 50 μM each for 2 wells. 5 days later, the cells were reacted at room temperature for 2 hours using CytoSelect™ MTT Cell Proliferation Assay (Cosmo Bio Co., Ltd.), followed by the measurement of absorbance at 590 nm with SPECTRAFLUOR Plus (Tecan Group Ltd.) to conduct a rechallenge experiment of cell proliferation. […] 7 days later, as for change in the live cell numbers of the A549 cells and the PC14 cells, the live cell numbers were measured by trypan blue staining to experimentally examine cell survival rates.

Experiment [6] concerns PC14 cells. The experiment can be described thus: Trypan blue assay of live cell numbers. The conditions noted are these: PC14, 7 days later. As to the method: as §5
Experiment [7] deals with A549 cells. Put plainly: GFP-LC3 transfection and Mito Tracker Red fluorescence observation. The conditions noted are these: 20 μM, 4 days. As to the method:
5×10^4 cells were inoculated and cultured for 24 hours. Then, 500 μL of OptiMEM, 10 μg of vector DNA (7.5 μL of P3000 reagent), and 20 μL of Lipofectamine(R) 3000 (Thermo Fisher Scientific) were added to the cells, which were then left at room temperature for 5 minutes for transfection and cultured for 24 hours. Then, 1000 subcultured cells were inoculated, cultured with 20 μM CCC021-TPP for 4 days, and then confirmed by fluorescence observation with Mito Tracker Red.

For experiment [8], the system named is A549 cells. Put plainly: Expression of apoptosis-related factors by RT-qPCR. The conditions noted are these: 5 days after treatment. As to the method: Accordingly, as for the maintenance of senescent cells by the circumvention of apoptosis as well as change in the expression of anti-apoptotic factors BCL-XL, BCL2, and survivin and an pro-apoptotic factor BAX by CCC021-TPP treatment, the cells were recovered 5 days after CCC021-TPP treatment as described above, and RNA extraction, RNA reverse-transcription, cDNA synthesis, and RT-qPCR were performed in the same manner as in Example 1 to examine the expression of apoptosis-related factors (BCL-XL, BCL2, survivin, and BAX) in the A549 cells and the PC14 cells. The primers used for the amplification of each gene are shown below. For qPCR, amplification was performed under conditions involving a holding stage of 50° C. for 2 min→95° C. for 10 min followed by 40 cycles of a cycling stage each involving 95° C. for 15 sec→60° C. for 1 min using Applied Biosystems(R) 7500 real-time PCR system, and melt curve analysis after amplification was conducted at a melt curve stage of 95° C. for 15 sec→60° C. for 1 min→95° C. for 15 sec→60° C. for 15 sec to confirm reaction specificity from the absence of primer dimer by-products or the like in PCR products.

In experiment [9] the test system is A549 cells. The experiment can be described thus: Synthetic lethality: cell morphology with CCC021-TPP and ABT-199 or A1155463. The conditions noted are these: 4 days. As to the method: It was confirmed with the BCL2- and BCL-XL-specific inhibitor that the suppression of cell death in the cellular senescence of the A549 cells was presumably due to the BCL pathway. The type of BCL pathway inhibition, combined use of which could induce cell death (apoptosis) in the senescent cells of the A549 cells was studied. Five hundred A549 cells were inoculated to a 96-well plate and cultured for 24 hours. Then, change in cell morphology was photographed under an optical microscope either without administration (i.e., after DMSO treatment) or 4 days after treatment with 20 μM CCC021-TPP and 10 μM BCL2 inhibitor ABT-199 (compound venetoclax of No. 33 in FIG. 55-10) or 10 μM BCL-XL inhibitor A1155463 (compound of No. 16 in FIG. 55-6) each alone, or treatment by combined use of the same concentration of CCC021-TPP with the same concentration of ABT-199 or A1155463.

One may read the IC50 as the concentration that gives 50% inhibition. Lower therefore signals greater potency. Compound `CN(C)CCCNC(=O)CCNC(=O)c1cc(NC(=O)c2cc(NC(=O)CCNC(=O)c3nc(NC(=O)c4cc(NC(=O)c5cc(NC(=O)CCNC(=O)CCCC[P+](c6ccccc6)(c6ccccc6)c6ccccc6)cn5C)cn4C)cn3C)cn2C)cn1C` [CCC021-TPP] yielded an IC50 in the experiment on A549 cells [1] of 78.9 µM. Moreover, the “IC50 (WST assay)” value with PC14 cells [2] is on record as “incalculable”. Besides, the results for the “cell number / proliferation” value in the experiment on A549 cells [3] and with PC14 cells [4] were “significant suppression of proliferation” and “neither significant difference in cell number nor a cell proliferation suppressive effect was found”, respectively. For the same compound, the “viability (trypan blue)” value with A549 cells [5] and with PC14 cells [6] was “no influence on the viability” in each case. In addition, in the experiment on A549 cells [7], the “localization of GFP-LC3 on mitochondria” value is “colocalized with red fluorescence from Mito Tracker Red”. Moreover, in the experiment with A549 cells [8], the “expression of anti-apoptotic factor BCL-XL” value is reported as “increased”. The “expression of pro-apoptotic factor BAX” value with A549 cells [8] is given as “increased expression”. Besides, the expression of survivin entry in the experiment with A549 cells [8] is given as “decreased expression”. Also, the “cell death (morphology)” value with A549 cells [9] (20 μM CCC021-TPP and 10 μM A1155463 used concurrently) is given as “markedly increased numbers of cells that underwent apoptosis”; in the experiment with A549 cells [9] (single administration: 20 μM CCC021-TPP, 10 μM ABT-199, 10 μM A1155463) it was “Any finding indicating cell death was not obtained”.
